Data: US20250109134A1 (Ascentage Pharma (Suzhou) Co., Ltd., priority 2022, published 2025)

Assay: Polymorph screening (suspension, anti-solvent, gas-liquid diffusion, slow volatilization methods), resulting form by XRPD
Format: physicochemical
Conditions: for XRPD results: methanol solution, no precipitation, open-to-air volatilization
Procedure: The sample was quickly centrifuged (6000 rpm, 5 min) to remove a supernatant. The resulting precipitate was subjected to vacuum drying (40° C., −0.1 MPa) for 20 h, followed by physical characterization.
The resulting precipitate was subjected to vacuum drying at 40° C. for 20 h, followed by physical characterization.
No clear solution was obtained, and the sample was still undissolved after 1 mL of solvent was added. Then, 500 μL of poor solvent (acetone, ACN, MeOH, EtOAc, THE, or […]) was added, and 40 mg of the sample was added to perform an experiment by a suspension method. All suspension samples were stirred at 50° C. for 2 days and quickly centrifuged (6000 rpm, 5 min) to remove a supernatant. The resulting solid was subjected to vacuum drying at 40° C. for 20 h, followed by physical characterization.
The compound of formula I was subjected to polymorph screening with DCM as a good solvent and with MeOH, EtOH, THE, or EA as an anti-solvent, and was dissolved in both DCM and MeOH systems. The suspension sample was stirred for 2 days and quickly centrifuged to remove a supernatant. The resulting precipitate was subjected to vacuum drying at 25° C. for 20 h, followed by physical characterization.
The resulting precipitate was subjected to vacuum drying at room temperature for 20 h, followed by physical characterization.
The resulting precipitate was subjected to vacuum drying for 20 h.
Sonication was performed for 1 min to obtain a clear solution, which was filtered through a 0.22 μm filter membrane and aliquoted into seven 8 mL glass flasks. An anti-solvent was added until precipitation occurred. The sample was stirred at room temperature for 1 day and quickly centrifuged. The resulting solid precipitate was subjected to vacuum drying.
Then, an anti-solvent was added until precipitation occurred, and the mixture was stirred at room temperature overnight and quickly centrifuged (6000 rpm, 6 min) to remove a supernatant. The resulting precipitate was subjected to vacuum drying for 20 h.
Then, the solution was added to a 20 mL glass flask containing 2 mL of an anti-solvent (shown in the following table), and the flask was tightly capped at room temperature and placed in a fume hood for diffusion. When precipitation occurred, the flask was taken out, and the resulting precipitate was subjected to vacuum drying for 20 h.
The flask placed in a fume hood at room temperature for diffusion. When precipitation occurred, the flask was taken out, and the resulting precipitate was subjected to vacuum drying for 20 h.
The mixture was stirred at 50° C. or room temperature for 6 days and quickly centrifuged (6000 rpm, […]) to remove a supernatant. The resulting precipitate was subjected to vacuum drying for 20 h.

In the case of `CC(C)N1Cc2cc(C(F)(F)F)ncc2-c2cnc(NCc3c(F)ccc4c3CCO4)n3cnc(c23)C1=O.CS(=O)(=O)O`, the Crystalline form results (anti-solvent method, good solvent DCM/MeOH = 2-1 (20 mg/mL), anti-solvent Methyl acetate, room temperature overnight) is reported as “No precipitation”, the Crystalline form results (anti-solvent method, good solvent DMF (50 mg/mL), anti-solvent Acetonitrile, room temperature overnight) is reported as “Crystalline form A” and the Crystalline form results (anti-solvent method, good solvent DMF (50 mg/mL), anti-solvent Dimethyl tetrahydrofuran, room temperature overnight) is reported as “No precipitation”. The Crystalline form results (anti-solvent method, good solvent DMF (50 mg/mL), anti-solvent Methyl acetate, room temperature overnight) was “Dissociation into a free base”, the Crystalline form results (anti-solvent method, good solvent DMF (50 mg/mL), anti-solvent n-heptane, room temperature overnight) was “No precipitation” and the Crystalline form results (anti-solvent method, good solvent MeOH (10 mg/mL), anti-solvent Acetonitrile, room temperature overnight) was “No precipitation”. The Crystalline form results (anti-solvent method, good solvent MeOH (10 mg/mL), anti-solvent Dimethyl tetrahydrofuran, room temperature overnight) was “No precipitation”, the Crystalline form results (anti-solvent method, good solvent MeOH (10 mg/mL), anti-solvent Methyl acetate, room temperature overnight) was “No precipitation” and the Crystalline form results (anti-solvent method, good solvent MeOH (10 mg/mL), anti-solvent n-heptane, room temperature overnight) was “No precipitation”. For the same compound, the Crystalline form results (anti-solvent method, good solvent NMP (50 mg/mL), anti-solvent Acetonitrile, room temperature overnight) was “Presumably an NMP solvate”, the Crystalline form results (anti-solvent method, good solvent NMP (50 mg/mL), anti-solvent Dimethyl tetrahydrofuran, room temperature overnight) was “Presumably an NMP solvate” and the Crystalline form results (anti-solvent method, good solvent NMP (50 mg/mL), anti-solvent Ethyl acetate, room temperature overnight) was “Dissociation into a free base”. The Crystalline form results (anti-solvent method, good solvent NMP (50 mg/mL), anti-solvent Methyl acetate, room temperature overnight) was “Presumably an NMP solvate”, the Crystalline form results (anti-solvent method, good solvent NMP (50 mg/mL), anti-solvent Tert-butyl methyl ether, room temperature overnight) was “Presumably an NMP solvate” and the Crystalline form results (anti-solvent method, good solvent NMP (50 mg/mL), anti-solvent n-heptane, room temperature overnight) was “Presumably an NMP solvate”. The Crystalline form results (gas-liquid diffusion method, good solvent DMF (50 mg/mL), anti-solvent 2-MeTHF, room temperature) was “No precipitation”, the Crystalline form results (gas-liquid diffusion method, good solvent DMF (50 mg/mL), anti-solvent ACN, room temperature) was “No precipitation” and the Crystalline form results (gas-liquid diffusion method, good solvent DMF (50 mg/mL), anti-solvent EtOAc, room temperature) was “No precipitation”. For the same compound, the Crystalline form results (gas-liquid diffusion method, good solvent DMF (50 mg/mL), anti-solvent FA, room temperature) was “No precipitation”, the Crystalline form results (gas-liquid diffusion method, good solvent DMF (50 mg/mL), anti-solvent Heptane, room temperature) was “No precipitation” and the Crystalline form results (gas-liquid diffusion method, good solvent DMF (50 mg/mL), anti-solvent MTBE, room temperature) was “No precipitation”. The Crystalline form results (gas-liquid diffusion method, good solvent MeOH (10 mg/mL), anti-solvent 2-MeTHF, room temperature) was “No precipitation”, the Crystalline form results (gas-liquid diffusion method, good solvent MeOH (10 mg/mL), anti-solvent ACN, room temperature) was “No precipitation” and the Crystalline form results (gas-liquid diffusion method, good solvent MeOH (10 mg/mL), anti-solvent FA, room temperature) was “No precipitation”. The Crystalline form results (gas-liquid diffusion method, good solvent MeOH (10 mg/mL), anti-solvent Heptane, room temperature) was “No precipitation”, the Crystalline form results (gas-liquid diffusion method, good solvent NMP (50 mg/mL), anti-solvent 2-MeTHF, room temperature) was “Possibly an NMP solvate” and the Crystalline form results (gas-liquid diffusion method, good solvent NMP (50 mg/mL), anti-solvent ACN, room temperature) was “Possibly an NMP solvate”. For the same compound, the Crystalline form results (gas-liquid diffusion method, good solvent NMP (50 mg/mL), anti-solvent EtOAc, room temperature) was “Dissociation into a free base”, the Crystalline form results (gas-liquid diffusion method, good solvent NMP (50 mg/mL), anti-solvent FA, room temperature) was “Possibly an NMP solvate” and the Crystalline form results (gas-liquid diffusion method, good solvent NMP (50 mg/mL), anti-solvent Heptane, room temperature) was “Possibly an NMP solvate”. The Crystalline form results (gas-liquid diffusion method, good solvent NMP (50 mg/mL), anti-solvent MTBE, room temperature) was “Possibly an NMP solvate”, the Crystalline form results (slow volatilization method, solvent DCM/MeOH = 2-1, room temperature) was “Crystalline form B” and the Crystalline form results (slow volatilization method, solvent EtOH/EA = 2-1, room temperature) was “Crystalline form A”. For the same compound, the Crystalline form results (slow volatilization method, solvent EtOH, room temperature) was “Crystalline form B”, the Crystalline form results (slow volatilization method, solvent MeOH/FA = 2-1, room temperature) was “Crystalline form B” and the Crystalline form results (slow volatilization method, solvent MeOH, room temperature) was “Crystalline form A”. The Crystalline form results (solvent ACN—H2O 1-1, initial crystalline form A of methanesulfonate salt) was “Crystalline form A”, the Crystalline form results (solvent H2O, initial crystalline form A of methanesulfonate salt) was “Crystalline form A” and the Crystalline form results (solvent MeOH—H2O 1-1, initial crystalline form A of methanesulfonate salt) was “Crystalline form A”.
In the case of `CC(C)N1Cc2cc(C(F)(F)F)ncc2-c2cnc(NCc3c(F)ccc4c3CCO4)n3cnc(c23)C1=O.Cl`, the Crystalline form results (solvent 1,4-dioxane, suspension, 40° C., 3 days, from crystalline form A of hydrochloride salt) is reported as “Crystalline form A of hydrochloride salt”, the Crystalline form results (solvent 88% acetone, suspension, 40° C., 3 days, from crystalline form A of hydrochloride salt) is reported as “Crystalline form B” and the Crystalline form results (solvent ACN, suspension, 40° C., 3 days, from crystalline form A of hydrochloride salt) is reported as “Crystalline form A of hydrochloride salt”. For the same compound, the Crystalline form results (solvent Acetone, suspension, 40° C., 3 days, from crystalline form A of hydrochloride salt) was “Crystalline form A of hydrochloride salt”, the Crystalline form results (solvent EtOAc, suspension, 40° C., 3 days, from crystalline form A of hydrochloride salt) was “Crystalline form A of hydrochloride salt” and the Crystalline form results (solvent EtOH, suspension, 40° C., 3 days, from crystalline form A of hydrochloride salt) was “Ethanol solvate of hydrochloride salt”. For the same compound, the Crystalline form results (solvent EtOH—H2O = 3-1, suspension, 40° C., 3 days, from crystalline form A of hydrochloride salt) was “Crystalline form A”, the Crystalline form results (solvent H2O, suspension, 40° C., 3 days, from crystalline form A of hydrochloride salt) was “Crystalline form A of hydrochloride salt” and the Crystalline form results (solvent IPA, suspension, 40° C., 3 days, from crystalline form A of hydrochloride salt) was “Isopropanol solvate of hydrochloride salt”. The Crystalline form results (solvent MeOH, suspension, 40° C., 3 days, from crystalline form A of hydrochloride salt) was “Partial dissociation into crystalline form A”, the Crystalline form results (solvent MeOH—H2O = 3-1, suspension, 40° C., 3 days, from crystalline form A of hydrochloride salt) was “Crystalline form A” and the Crystalline form results (solvent Toluene, suspension, 40° C., 3 days, from crystalline form A of hydrochloride salt) was “Crystalline form A of hydrochloride salt”. For the same compound, the Crystalline form results (solvent n-butanol, suspension, 40° C., 3 days, from crystalline form A of hydrochloride salt) was “Crystalline form A of hydrochloride salt”.
In the case of `CC(C)N1Cc2cc(C(F)(F)F)ncc2-c2cnc(NCc3c(F)ccc4c3CCO4)n3cnc(c23)C1=O.O=S(=O)(O)O`, the XRPD results (anti-solvent method, anti-solvent Acetone) is reported as “Crystalline form B”, the XRPD results (anti-solvent method, anti-solvent Heptane) is reported as “Crystalline form A” and the Crystalline form results (solvent 88% acetone, suspension, 40° C., 3 days, from crystalline form A of sulfate salt) is reported as “Crystalline form B”. The Crystalline form results (solvent ACN, suspension, 40° C., 3 days, from crystalline form A of sulfate salt) was “Crystalline form A of sulfate salt”, the Crystalline form results (solvent ACN—H2O = 1:1, suspension, 40° C., 3 days, from crystalline form A of sulfate salt) was “Crystalline form A” and the Crystalline form results (solvent Acetone, suspension, 40° C., 3 days, from crystalline form A of sulfate salt) was “Crystalline form A of sulfate salt”. The Crystalline form results (solvent DCM/MeOH = 1:1, suspension, 40° C., 3 days, from crystalline form A of sulfate salt) was “Crystalline form A”, the Crystalline form results (solvent EtOAc, suspension, 40° C., 3 days, from crystalline form A of sulfate salt) was “Sulfate salt forming into sulfate” and the Crystalline form results (solvent EtOH, suspension, 40° C., 3 days, from crystalline form A of sulfate salt) was “Sulfate salt forming into sulfate”. The Crystalline form results (solvent EtOH—H2O = 3:1, suspension, 40° C., 3 days, from crystalline form A of sulfate salt) was “Crystalline form A”, the Crystalline form results (solvent IPA, suspension, 40° C., 3 days, from crystalline form A of sulfate salt) was “Sulfate salt forming into sulfate” and the Crystalline form results (solvent MeOH, suspension, 40° C., 3 days, from crystalline form A of sulfate salt) was “Crystalline form A”. For the same compound, the Crystalline form results (solvent MeOH—H2O = 3:1, suspension, 40° C., 3 days, from crystalline form A of sulfate salt) was “Crystalline form A”, the Crystalline form results (solvent THF, suspension, 40° C., 3 days, from crystalline form A of sulfate salt) was “Crystalline form A of sulfate salt” and the Crystalline form results (solvent Toluene, suspension, 40° C., 3 days, from crystalline form A of sulfate salt) was “Crystalline form A of sulfate salt”.
